According to US11306092B2, “Amino indole compounds useful as TLR inhibitors” (BRISTOL-MYERS SQUIBB COMPANY, priority 2017, dated 2022):

Assays:
Format in all cases: cell-based
[1] = target: T1, human TLR9 (Homo sapiens, UniProt Q9NR96); assay: TLR9 inhibition reporter assay (HEK-Blue SEAP reporter); conditions: HEK-Blue cells overexpressing human TLR9; ODN2006 5 nM; 22 hour incubation
T1 construct: host or cells: HEK-Blue cells
T1 sequence (Q9NR96 26-1032): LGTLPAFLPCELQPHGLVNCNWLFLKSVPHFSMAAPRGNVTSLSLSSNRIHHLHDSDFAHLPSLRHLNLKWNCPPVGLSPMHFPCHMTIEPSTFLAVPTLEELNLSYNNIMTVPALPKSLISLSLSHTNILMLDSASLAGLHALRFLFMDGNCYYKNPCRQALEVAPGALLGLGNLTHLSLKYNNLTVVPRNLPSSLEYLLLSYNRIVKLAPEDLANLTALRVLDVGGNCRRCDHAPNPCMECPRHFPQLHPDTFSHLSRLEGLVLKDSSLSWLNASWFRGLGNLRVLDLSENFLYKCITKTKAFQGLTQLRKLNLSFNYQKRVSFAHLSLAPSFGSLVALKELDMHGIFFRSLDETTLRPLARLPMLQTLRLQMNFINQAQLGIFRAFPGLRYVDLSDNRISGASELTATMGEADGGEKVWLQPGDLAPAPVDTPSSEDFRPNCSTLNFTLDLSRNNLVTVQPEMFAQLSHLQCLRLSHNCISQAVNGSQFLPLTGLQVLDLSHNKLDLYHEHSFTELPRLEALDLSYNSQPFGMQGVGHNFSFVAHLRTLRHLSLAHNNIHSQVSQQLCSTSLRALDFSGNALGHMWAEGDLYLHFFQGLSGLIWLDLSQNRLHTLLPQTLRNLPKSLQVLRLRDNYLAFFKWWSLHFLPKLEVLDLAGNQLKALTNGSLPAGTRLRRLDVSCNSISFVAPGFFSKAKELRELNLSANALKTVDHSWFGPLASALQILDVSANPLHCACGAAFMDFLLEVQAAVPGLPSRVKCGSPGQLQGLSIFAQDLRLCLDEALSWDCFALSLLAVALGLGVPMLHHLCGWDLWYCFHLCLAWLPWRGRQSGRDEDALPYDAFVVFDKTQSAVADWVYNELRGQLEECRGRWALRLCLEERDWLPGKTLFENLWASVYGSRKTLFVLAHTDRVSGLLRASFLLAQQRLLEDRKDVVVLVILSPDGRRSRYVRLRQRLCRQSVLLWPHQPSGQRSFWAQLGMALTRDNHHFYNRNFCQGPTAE
Outline: (§1)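 Dose–response from 0.05 nM to 50 μM was run in HEK-Blue human TLR7, TLR8 and TLR9 reporter cells. After 30 min at room temperature with compound, ligand was added (TLR7 gardiquimod 7.5 μM; TLR8 R848 15.9 μM; TLR9 ODN2006 5 nM) and SEAP measured next day, at 22 h.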

[2] = target: T2, human TLR8 (Homo sapiens, UniProt Q9NR97); assay: TLR8 inhibition reporter assay (HEK-Blue SEAP reporter); conditions: HEK-Blue cells overexpressing human TLR8; R848 15.9 μM; 22 hour incubation
T2 construct: host or cells: HEK-Blue cells
T2 sequence (Q9NR97 27-1041): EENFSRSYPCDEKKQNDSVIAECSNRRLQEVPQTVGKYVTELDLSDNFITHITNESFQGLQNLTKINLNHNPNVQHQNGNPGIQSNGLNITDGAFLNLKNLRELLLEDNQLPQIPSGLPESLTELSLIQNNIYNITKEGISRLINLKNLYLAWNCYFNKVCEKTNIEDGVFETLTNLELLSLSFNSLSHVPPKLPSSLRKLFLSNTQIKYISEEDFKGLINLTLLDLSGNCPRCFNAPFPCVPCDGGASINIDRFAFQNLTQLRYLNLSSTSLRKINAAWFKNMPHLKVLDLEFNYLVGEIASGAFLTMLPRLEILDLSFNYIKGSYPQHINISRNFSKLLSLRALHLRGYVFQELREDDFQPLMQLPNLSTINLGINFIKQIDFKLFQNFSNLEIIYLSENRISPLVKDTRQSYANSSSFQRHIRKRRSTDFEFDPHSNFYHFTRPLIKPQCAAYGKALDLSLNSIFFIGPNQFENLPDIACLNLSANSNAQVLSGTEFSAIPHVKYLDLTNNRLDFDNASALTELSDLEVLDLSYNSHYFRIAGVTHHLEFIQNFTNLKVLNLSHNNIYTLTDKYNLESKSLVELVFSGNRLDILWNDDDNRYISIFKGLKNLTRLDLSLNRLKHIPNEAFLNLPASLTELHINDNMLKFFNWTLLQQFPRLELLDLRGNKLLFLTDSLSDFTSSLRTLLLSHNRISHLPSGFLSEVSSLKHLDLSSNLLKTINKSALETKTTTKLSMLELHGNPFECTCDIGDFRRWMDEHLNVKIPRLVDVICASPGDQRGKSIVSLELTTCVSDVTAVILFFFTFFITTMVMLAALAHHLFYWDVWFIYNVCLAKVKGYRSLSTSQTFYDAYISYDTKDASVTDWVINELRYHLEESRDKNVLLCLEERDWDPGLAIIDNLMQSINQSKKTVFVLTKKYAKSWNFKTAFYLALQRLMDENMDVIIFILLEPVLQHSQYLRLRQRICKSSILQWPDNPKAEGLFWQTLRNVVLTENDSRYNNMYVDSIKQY
Outline: as §1

[3] = target: T3, human TLR7 (Homo sapiens, UniProt Q9NYK1); assay: TLR7 inhibition reporter assay (HEK-Blue SEAP reporter); conditions: HEK-Blue cells overexpressing human TLR7; gardiquimod 7.5 μM; 22 hour incubation
T3 construct: host or cells: HEK-Blue cells
T3 sequence (Q9NYK1 27-1049): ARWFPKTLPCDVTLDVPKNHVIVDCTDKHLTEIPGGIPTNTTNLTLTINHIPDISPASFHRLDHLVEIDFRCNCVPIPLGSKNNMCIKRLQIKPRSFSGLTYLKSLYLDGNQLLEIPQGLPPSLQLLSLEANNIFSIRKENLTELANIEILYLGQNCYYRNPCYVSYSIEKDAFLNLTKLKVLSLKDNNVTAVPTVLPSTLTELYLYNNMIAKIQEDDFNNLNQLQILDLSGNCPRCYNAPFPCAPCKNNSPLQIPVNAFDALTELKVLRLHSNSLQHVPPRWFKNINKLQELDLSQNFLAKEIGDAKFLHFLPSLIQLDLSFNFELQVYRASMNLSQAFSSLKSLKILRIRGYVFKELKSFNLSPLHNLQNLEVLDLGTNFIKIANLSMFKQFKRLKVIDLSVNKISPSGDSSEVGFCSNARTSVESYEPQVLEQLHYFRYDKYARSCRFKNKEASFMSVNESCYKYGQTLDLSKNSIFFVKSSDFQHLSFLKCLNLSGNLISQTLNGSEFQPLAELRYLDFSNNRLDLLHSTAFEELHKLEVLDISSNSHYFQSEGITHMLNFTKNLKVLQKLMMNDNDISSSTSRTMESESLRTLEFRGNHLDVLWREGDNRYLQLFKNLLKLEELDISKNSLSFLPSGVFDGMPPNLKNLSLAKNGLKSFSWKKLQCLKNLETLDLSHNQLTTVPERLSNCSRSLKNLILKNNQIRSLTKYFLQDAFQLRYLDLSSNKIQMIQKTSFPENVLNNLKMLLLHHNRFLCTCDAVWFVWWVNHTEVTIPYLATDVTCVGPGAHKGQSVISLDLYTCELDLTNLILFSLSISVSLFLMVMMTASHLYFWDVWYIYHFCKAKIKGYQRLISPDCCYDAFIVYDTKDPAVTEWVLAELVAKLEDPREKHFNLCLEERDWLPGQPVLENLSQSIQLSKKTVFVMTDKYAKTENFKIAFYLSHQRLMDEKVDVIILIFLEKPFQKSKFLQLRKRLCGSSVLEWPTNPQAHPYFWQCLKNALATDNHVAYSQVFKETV
Outline: as §1

SMILES	IC50 [1] [nM]	IC50 [2] [nM]	IC50 [3] [nM]
Cc1cc2[nH]c(-c3ccnc4[nH]ncc34)c(C(C)C)c2cc1N1CCN(C2CCN(C(C)C)CC2)CC1 [Example 175, 4-(3-isopropyl-5-(4-(1-isopropylpiperidin-4-yl)piperazin-1-yl)-6-methyl-1H-indol-2-yl)-1H-pyrazolo[3,4-b]pyridine]	261	11	7.5
COc1ccc(-c2[nH]c3ccc(N4CCN(C5CCN(C(C)C)CC5)CC4)cc3c2C)cc1OC [Example 164, 2-(3,4-dimethoxyphenyl)-5-(4-(1-isopropylpiperidin-4-yl)piperazin-1-yl)-3-methyl-1H-indole]	577	> 50000	7090
CCc1c(-c2ccc(OC)c(OC)c2)[nH]c2ccc(N3CCN(C4CC(C)(C)NC(C)(C)C4)CC3)cc12 [Example 176, 2-(3,4-dimethoxyphenyl)-3-ethyl-5-(4-(2,2,6,6-tetramethylpiperidin-4-yl)piperazin-1-yl)-1H-indole]	866	28	68
CCc1c(-c2ccnc(C)c2)[nH]c2ccc(N3CCN(C4CCN(C(C)C)CC4)CC3)cc12 [Example 147, 3-ethyl-5-(4-(1-isopropylpiperidin-4-yl)piperazin-1-yl)-2-(2-methylpyridin-4-yl)-1H-indole]	227	17900	4650
COc1ccc(-c2[nH]c3ccc(N4CCN(C5CC(C)(C)NC(C)(C)C5)CC4)cc3c2C)cc1OC [Example 171, 2-(3,4-dimethoxyphenyl)-3-methyl-5-(4-(2,2,6,6-tetramethylpiperidin-4-yl)piperazin-1-yl)-1H-indole]	379	32200	8990
CCc1c(-c2ccnc(OC)c2)[nH]c2ccc(N3CCN(C4CC(C)(C)NC(C)(C)C4)CC3)cc12 [Example 161, 3-ethyl-2-(2-methoxypyridin-4-yl)-5-(4-(2,2,6,6-tetramethylpiperidin-4-yl)piperazin-1-yl)-lH-indole]	243	8.1	63
Cc1c(-c2ccnc3[nH]ccc23)[nH]c2ccc(N3CCN(C4CCN(CC(C)C)CC4)CC3)cc12 [Example 158, 4-(5-(4-(1-isobutylpiperidin-4-yl)piperazin-1-yl)-3-methyl-H-indol-2-yl)-1H-pyrrolo[2,3-b]pyridine]	198	45400	12500
COc1ccc(-c2[nH]c3ccc(N4CCC(N(C)CCCN(C)C)CC4)cc3c2C(C)C)cc1OC [Example 81, N1-(1-(2-(3,4-dimethoxyphenyl)-3-isopropyl-1H-indol-5-yl)piperidin-4-yl)-N1,N3,N3-trimethylpropane-1,3-diamine]	1050	10	44
COc1ccc(-c2[nH]c3ccc(N4CCCC5CN(Cc6ccccc6)CC54)cc3c2C(C)C)cc1OC (stereo not drawn) [Example 118, 6-benzyl-1-(2-(3,4-dimethoxyphenyl)-3-isopropyl-1H-indol-5-yl)octahydro-1H-pyrrolo[3,4-b]pyridine]	1760	325	1120
COc1ccc(-c2[nH]c3ccc(NC(=O)[C@@H](N)C4CCCCC4)cc3c2C(C)C)cc1OC [Example 26, (S)-2-amino-2-cyclohexyl-N-(2-(3,4-dimethoxyphenyl)-3-isopropyl-1H-indol-5-yl)acetamide]	11300	194	1180
CCc1c(-c2cc(OC)nc(OC)c2)[nH]c2ccc(N3CCN(C4CCN(C)CC4)CC3)cc12 [Example 156, 2-(2,6-dimethoxypyridin-4-yl)-3-ethyl-5-(4-(1-methylpiperidin-4-yl)piperazin-1-yl)-1H-indole]	597	6.6	52
Cc1cc2[nH]c(-c3ccnc4[nH]ncc34)c(C(C)C)c2cc1N1CCNCC1 [Example 130, 4-(3-isopropyl-6-methyl-5-(piperazin-1-yl)-1H-indol-2-yl)-1H-pyrazolo[3,4-b]pyridine]	1160	7.8	2
CCc1c(-c2ccc(OC)c(OC)c2)[nH]c2ccc(N3CCC(OC4CCN(C)CC4)CC3)cc12 [Example 134, 2-(3,4-dimethoxyphenyl)-3-ethyl-5-(4-((1-methylpiperidin-4-yl)oxy)piperidin-1-yl)-1H-indole]	462	94	54
CCN1CCCN(C2CCN(c3ccc4[nH]c(-c5ccc(OC)c(OC)c5)c(C(C)C)c4c3)CC2)CC1 [Example 84, 2-(3,4-dimethoxyphenyl)-5-(4-(4-ethyl-1,4-diazepan-1-yl)piperidin-1-yl)-3-isopropyl-1H-indole]	999	4.7	16
COc1ccc(-c2[nH]c3ccc(N4CCC(C(C)(C)O)CC4)cc3c2C(C)C)cc1OC [Example 110, 2-(1-(2-(3,4-dimethoxyphenyl)-3-isopropyl-1H-indol-5-yl)piperidin-4-yl)propan-2-ol]	29500	328	194
